PubChem BioAssay AID1259407 (Chemical Carcinogenesis Research Information System (CCRIS), 2018)
Activity calls are given as the source filed them. The rule behind the calls is not given here.

System: CCRIS mutagenicity, Ames/micronucleus/aberration tests
Test: CCRIS mutagenicity studies
[1] = Test System: AMES SALMONELLA TYPHIMURIUM, Strain/Indicator: TA100, Metabolic Activation: NONE, Method: STANDARD PLATE
[2] = Test System: AMES SALMONELLA TYPHIMURIUM, Strain/Indicator: TA100, Metabolic Activation: NONE, Method: PREINCUBATION

With `CCCCOC(C)=O` as the compound, how does the mutagenic call (Test System: AMES SALMONELLA TYPHIMURIUM, Strain/Indicator: TA97, Metabolic Activation: HAMSTER, LIVER, S-9, AROCLOR 1254 (10 OR 30%), Method: PREINCUBATION) read?
Its mutagenic call is “inactive; negative”.

What about the mutagenic call (Test System: AMES SALMONELLA TYPHIMURIUM, Strain/Indicator: TA97, Metabolic Activation: NONE, Method: PREINCUBATION) of the same compound?
Its mutagenic call is “inactive; negative”.

And the mutagenic call (Test System: AMES SALMONELLA TYPHIMURIUM, Strain/Indicator: TA97, Metabolic Activation: RAT, LIVER, S-9, AROCLOR 1254 (10 OR 30%), Method: PREINCUBATION)?
The mutagenic call was “inactive; negative”.

What about the mutagenic call (Test System: AMES SALMONELLA TYPHIMURIUM, Strain/Indicator: TA98, Metabolic Activation: HAMSTER, LIVER, S-9, AROCLOR 1254 (10 OR 30%), Method: PREINCUBATION) of the same compound?
Its mutagenic call is “inactive; negative”.

And the mutagenic call (Test System: AMES SALMONELLA TYPHIMURIUM, Strain/Indicator: TA98, Metabolic Activation: RAT, LIVER, S-9, AROCLOR 1254 (10 OR 30%), Method: PREINCUBATION)?
Its mutagenic call is “inactive; negative”.

What about the mutagenic call (Test System: AMES SALMONELLA TYPHIMURIUM, Strain/Indicator: TA98, Metabolic Activation: RAT, LIVER, S-9, KC 500, Method: PREINCUBATION) of the same compound?
Its mutagenic call is “inactive; negative”.

And the mutagenic call (Test System: AMES SALMONELLA TYPHIMURIUM, Strain/Indicator: TA98, Metabolic Activation: RAT, LIVER, S-9, PHENOBARBITAL AND BETA-NAPHTHOFLAVONE, Method: PREINCUBATION)?
Its mutagenic call is “inactive; negative”.

And the mutagenic call (Test System: AMES SALMONELLA TYPHIMURIUM, Strain/Indicator: TA100, Metabolic Activation: HAMSTER, LIVER, S-9, AROCLOR 1254 (10 OR 30%), Method: PREINCUBATION)?
Its mutagenic call is “inactive; negative”.

What about the mutagenic call (Test System: AMES SALMONELLA TYPHIMURIUM, Strain/Indicator: TA100, Metabolic Activation: RAT, LIVER, S-9, AROCLOR 1254 (10 OR 30%), Method: PREINCUBATION) of the same compound?
The mutagenic call was “inactive; negative”.

And the mutagenic call (Test System: AMES SALMONELLA TYPHIMURIUM, Strain/Indicator: TA100, Metabolic Activation: RAT, LIVER, S-9, KC 500, Method: PREINCUBATION)?
The mutagenic call was “inactive; negative”.

And the mutagenic call (Test System: AMES SALMONELLA TYPHIMURIUM, Strain/Indicator: TA100, Metabolic Activation: RAT, LIVER, S-9, PHENOBARBITAL AND BETA-NAPHTHOFLAVONE, Method: PREINCUBATION)?
Its mutagenic call is “inactive; negative”.

What about the mutagenic call (Test System: AMES SALMONELLA TYPHIMURIUM, Strain/Indicator: TA102, Metabolic Activation: NONE, Method: PREINCUBATION) of the same compound?
Its mutagenic call is “inactive; negative”.

And the mutagenic call (Test System: AMES SALMONELLA TYPHIMURIUM, Strain/Indicator: TA102, Metabolic Activation: RAT, LIVER, S-9, PHENOBARBITAL AND BETA-NAPHTHOFLAVONE, Method: PREINCUBATION)?
The mutagenic call was “inactive; negative”.

What about the mutagenic call (Test System: AMES SALMONELLA TYPHIMURIUM, Strain/Indicator: TA104, Metabolic Activation: NONE, Method: PREINCUBATION) of the same compound?
The mutagenic call was “inactive; negative”.

And the mutagenic call (Test System: AMES SALMONELLA TYPHIMURIUM, Strain/Indicator: TA104, Metabolic Activation: RAT, LIVER, 2-9, PHENOBARBITAL AND BETA-NAPHTHOFLAVONE, Method: PREINCUBATION)?
Its mutagenic call is “inactive; negative”.

And the mutagenic call (Test System: AMES SALMONELLA TYPHIMURIUM, Strain/Indicator: TA104, Metabolic Activation: RAT, LIVER, S-9, PHENOBARBITAL AND BETA-NAPHTHOFLAVONE, Method: PREINCUBATION)?
Its mutagenic call is “inactive; negative”.

And the mutagenic call (Test System: AMES SALMONELLA TYPHIMURIUM, Strain/Indicator: TA1535, Metabolic Activation: HAMSTER, LIVER, S-9, AROCLOR 1254 (10 OR 30%), Method: PREINCUBATION)?
The mutagenic call was “inactive; negative”.

What about the mutagenic call (Test System: AMES SALMONELLA TYPHIMURIUM, Strain/Indicator: TA1535, Metabolic Activation: RAT, LIVER, S-9, AROCLOR 1254 (10 OR 30%), Method: PREINCUBATION) of the same compound?
The mutagenic call was “inactive; negative”.

What about the mutagenic call (Test System: AMES SALMONELLA TYPHIMURIUM, Strain/Indicator: TA1535, Metabolic Activation: RAT, LIVER, S-9, KC 500, Method: PREINCUBATION) of the same compound?
The mutagenic call was “inactive; negative”.

What about the mutagenic call (Test System: AMES SALMONELLA TYPHIMURIUM, Strain/Indicator: TA1535, Metabolic Activation: RAT, LIVER, S-9, PHENOBARBITAL AND BETA-NAPHTHOFLAVONE, Method: PREINCUBATION) of the same compound?
Its mutagenic call is “inactive; negative”.

What about the mutagenic call (Test System: AMES SALMONELLA TYPHIMURIUM, Strain/Indicator: TA1537, Metabolic Activation: HAMSTER, LIVER, S-9, AROCLOR 1254 (30%), Method: PREINCUBATION) of the same compound?
Its mutagenic call is “inactive; negative”.

And the mutagenic call (Test System: AMES SALMONELLA TYPHIMURIUM, Strain/Indicator: TA1537, Metabolic Activation: RAT, LIVER, S-9, AROCLOR 1254 (30%), Method: PREINCUBATION)?
The mutagenic call was “inactive; negative”.

What about the mutagenic call (Test System: AMES SALMONELLA TYPHIMURIUM, Strain/Indicator: TA1537, Metabolic Activation: RAT, LIVER, S-9, KC 500, Method: PREINCUBATION) of the same compound?
Its mutagenic call is “inactive; negative”.

And the mutagenic call (Test System: AMES SALMONELLA TYPHIMURIUM, Strain/Indicator: TA1537, Metabolic Activation: RAT, LIVER, S-9, PHENOBARBITAL AND BETA-NAPHTHOFLAVONE, Method: PREINCUBATION)?
Its mutagenic call is “inactive; negative”.

And the mutagenic call (Test System: AMES SALMONELLA TYPHIMURIUM, Strain/Indicator: TA1538, Metabolic Activation: NONE, Method: PREINCUBATION)?
The mutagenic call was “inactive; negative”.

And the mutagenic call (Test System: AMES SALMONELLA TYPHIMURIUM, Strain/Indicator: TA1538, Metabolic Activation: RAT, LIVER, S-9, KC 500, Method: PREINCUBATION)?
The mutagenic call was “inactive; negative”.

What about the mutagenic call (Test System: E. COLI, Strain/Indicator: WP2UVRA/PKM101, Metabolic Activation: NONE, Method: PREINCUBATION) of the same compound?
The mutagenic call was “inactive; negative”.

And the mutagenic call (Test System: E. COLI, Strain/Indicator: WP2UVRA/PKM101, Metabolic Activation: RAT, LIVER, S-9, PHENOBARBITAL AND BETA-NAPHTHOFLAVONE, Method: PREINCUBATION)?
The mutagenic call was “inactive; negative”.

And the mutagenic call (Test System: E. COLI, Strain/Indicator: WP2 UVRA, Metabolic Activation: NONE, Method: PREINCUBATION)?
Its mutagenic call is “inactive; negative”.

What about the mutagenic call (Test System: E. COLI, Strain/Indicator: WP2UVRA, Metabolic Activation: NONE, Method: PREINCUBATION) of the same compound?
The mutagenic call was “inactive; negative”.

And the mutagenic call (Test System: E. COLI, Strain/Indicator: WP2 UVRA, Metabolic Activation: RAT, LIVER, S-9, KC 500, Method: PREINCUBATION)?
Its mutagenic call is “inactive; negative”.

And the mutagenic call (Test System: E. COLI, Strain/Indicator: WP2UVRA, Metabolic Activation: RAT, LIVER, S-9, PHENOBARBITAL AND BETA-NAPHTHOFLAVONE, Method: PREINCUBATION)?
Its mutagenic call is “inactive; negative”.

Which mutagenic call [1] does the source give for `CC(=O)Nc1ccc(Oc2ccc(Cl)cc2Cl)cc1` here?
The mutagenic call was “inactive; negative”.

And the mutagenic call (Test System: AMES SALMONELLA TYPHIMURIUM, Strain/Indicator: TA100, Metabolic Activation: RAT, LIVER, S-9, KANECLOR 500, Method: STANDARD PLATE)?
The mutagenic call was “active; positive”.

How did the mutagenic call (Test System: AMES SALMONELLA TYPHIMURIUM, Strain/Indicator: TA98(1,8-DNP6), Metabolic Activation: NONE, Method: PREINCUBATION) turn out when `Nc1cc2nc3ccccc3nc2cc1O` was run?
Its mutagenic call is “inactive; negative”.

And the mutagenic call (Test System: AMES SALMONELLA TYPHIMURIUM, Strain/Indicator: TA98(1,8-DNP6), Metabolic Activation: S-9, Method: PREINCUBATION)?
The mutagenic call was “inactive; negative”.

And the mutagenic call (Test System: AMES SALMONELLA TYPHIMURIUM, Strain/Indicator: TA98, Metabolic Activation: NONE, Method: PREINCUBATION)?
Its mutagenic call is “inactive; negative”.

And the mutagenic call (Test System: AMES SALMONELLA TYPHIMURIUM, Strain/Indicator: TA98, Metabolic Activation: NONE, Method: STANDARD PLATE)?
The mutagenic call was “active; positive”.

What about the mutagenic call (Test System: AMES SALMONELLA TYPHIMURIUM, Strain/Indicator: TA98, Metabolic Activation: RAT, LIVER, S-9, AROCLOR 1254, Method: STANDARD PLATE) of the same compound?
The mutagenic call was “active; positive”.

And the mutagenic call (Test System: AMES SALMONELLA TYPHIMURIUM, Strain/Indicator: TA98, Metabolic Activation: S-9, Method: PREINCUBATION)?
Its mutagenic call is “inactive; negative”.

What about the mutagenic call (Test System: AMES SALMONELLA TYPHIMURIUM, Strain/Indicator: TA100(OAT-), Metabolic Activation: NONE, Method: PREINCUBATION) of the same compound?
The mutagenic call was “inactive; negative”.

What about the mutagenic call (Test System: AMES SALMONELLA TYPHIMURIUM, Strain/Indicator: TA100(OAT-), Metabolic Activation: S-9, Method: PREINCUBATION) of the same compound?
Its mutagenic call is “inactive; negative”.

What about the mutagenic call [2] of the same compound?
The mutagenic call was “inactive; negative”.

What about the mutagenic call [1] of the same compound?
The mutagenic call was “inactive; negative”.

And the mutagenic call (Test System: AMES SALMONELLA TYPHIMURIUM, Strain/Indicator: TA100, Metabolic Activation: RAT, LIVER, S-9, AROCLOR 1254, Method: STANDARD PLATE)?
Its mutagenic call is “active; positive”.

And the mutagenic call (Test System: AMES SALMONELLA TYPHIMURIUM, Strain/Indicator: TA100, Metabolic Activation: S-9, Method: PREINCUBATION)?
Its mutagenic call is “inactive; negative”.

And the mutagenic call (Test System: AMES SALMONELLA TYPHIMURIUM, Strain/Indicator: TA1537, Metabolic Activation: NONE, Method: STANDARD PLATE)?
Its mutagenic call is “active; positive”.

And the mutagenic call (Test System: AMES SALMONELLA TYPHIMURIUM, Strain/Indicator: TA1537, Metabolic Activation: RAT, LIVER, S-9, AROCLOR 1254, Method: STANDARD PLATE)?
The mutagenic call was “active; positive”.

And the mutagenic call (Test System: AMES SALMONELLA TYPHIMURIUM, Strain/Indicator: YG1024, Metabolic Activation: PLANT CELL-FREE EXTRACT, Method: PREINCUBATION)?
Its mutagenic call is “active; positive”.

And the mutagenic call (Test System: AMES SALMONELLA TYPHIMURIUM, Strain/Indicator: YG1024, Metabolic Activation: S-9, Method: PREINCUBATION)?
The mutagenic call was “active; positive”.

What about the mutagenic call (Test System: AMES SALMONELLA TYPHIMURIUM, Strain/Indicator: YG1029, Metabolic Activation: S-9, Method: PREINCUBATION) of the same compound?
The mutagenic call was “active; positive”.

With `O=C(O)/C=C/c1ccc(Cl)cc1` as the compound, how does the mutagenic call [2] read?
Its mutagenic call is “inactive; negative”.

What about the mutagenic call (Test System: AMES SALMONELLA TYPHIMURIUM, Strain/Indicator: TA100, Metabolic Activation: RAT, LIVER, S-9, AROCLOR 1254, Method: PREINCUBATION) of the same compound?
Its mutagenic call is “inactive; negative”.
